Here are results for 18 molecules from PubChem BioAssay AID256 (DTP/NCI, 2004).

The subject of this test is CD2F1 mice, L1210 leukemia ip, survival T/C. Put plainly: NCI In Vivo Anticancer Drug Screen. Data for tumor model L1210 Leukemia (intraperitoneal) in CD2F1 (CDF1) mice. The settings on record: higher = longer survival. The gist of the method:
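Antitumor effect is scored in animals hosting a serially transplanted tumor. Values compare compound-dosed animals against vehicle-only controls as a simple quotient.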

Where [1] appears, read: endpoint: mean survival time, dose: 100.0 mg/kg/injection, schedule: Q01DX009 (ip), vehicle: saline with Tween-80.
Setting [2] is: endpoint: mean survival time, dose: 200.0 mg/kg/injection, schedule: Q01DX009 (ip), vehicle: saline with Tween-80.
Where [3] appears, read: endpoint: mean survival time, dose: 100.0 mg/kg/injection, schedule: Q04DX003 (ip), vehicle: saline sonified.
Setting [4] is: endpoint: mean survival time, dose: 200.0 mg/kg/injection, schedule: Q04DX003 (ip), vehicle: saline sonified.
Setting [5] is: endpoint: mean survival time, dose: 400.0 mg/kg/injection, schedule: Q04DX003 (ip), vehicle: saline sonified.
The mark [6] stands for this setting: endpoint: mean survival time, dose: 100.0 mg/kg/injection, schedule: Q04DX003 (ip), vehicle: saline with Tween-80.
Where [7] appears, read: endpoint: mean survival time, dose: 200.0 mg/kg/injection, schedule: Q04DX003 (ip), vehicle: saline with Tween-80.
The mark [8] stands for this setting: endpoint: mean survival time, dose: 400.0 mg/kg/injection, schedule: Q04DX003 (ip), vehicle: saline with Tween-80.

Several values for one entry are separate records, joined by “and”; a condition that tells them apart may be missing. Equal values may be shown once. Toxic doses and inconclusive results are not listed.

Take `O=C1C2CC=CCC2C(=O)N1SC(Cl)(Cl)Cl` (centres undefined): the T/C (endpoint: mean survival time, dose: 0.78 mg/kg/injection, schedule: Q01DX009 (ip), vehicle: saline with Tween-80) was 97 % of control; the T/C (endpoint: mean survival time, dose: 1.56 mg/kg/injection, schedule: Q01DX009 (ip), vehicle: saline with Tween-80) was 97 % of control; the T/C (endpoint: mean survival time, dose: 3.12 mg/kg/injection, schedule: Q01DX009 (ip), vehicle: saline with Tween-80) was 97 % of control; the T/C (endpoint: mean survival time, dose: 6.25 mg/kg/injection, schedule: Q01DX009 (ip), vehicle: saline with Tween-80) is 93 % of control; the T/C (endpoint: mean survival time, dose: 12.5 mg/kg/injection, schedule: Q01DX009 (ip), vehicle: saline with Tween-80) was 101 % of control; the T/C (endpoint: mean survival time, dose: 25.0 mg/kg/injection, schedule: Q01DX009 (ip), vehicle: saline with Tween-80) was 89 % of control.

For the molecule `NC(CCSCc1ccc(N(CCCl)CCCl)cc1)C(=O)O` (centres undefined), the T/C (endpoint: mean survival time, dose: 14.0 mg/kg/injection, schedule: Q01DX009 (ip), vehicle: carboxymethylcellulose (CMC)) is 152 % of control.

Consider `CC(=O)Nc1ccc(CC#N)cc1`, for which the T/C reads like this: (endpoint: mean survival time, dose: 5.0 mg/kg/injection, schedule: Q04DX003 (ip), vehicle: saline sonified) 103 % of control; (endpoint: mean survival time, dose: 10.0 mg/kg/injection, schedule: Q04DX003 (ip), vehicle: saline sonified) 114 % of control; (endpoint: mean survival time, dose: 20.0 mg/kg/injection, schedule: Q04DX003 (ip), vehicle: saline sonified) 94 % of control.

For `O/N=C\c1ccc2c(c1)OCCO2`, the T/C by setting is: (endpoint: mean survival time, dose: 37.5 mg/kg/injection, schedule: Q01DX009 (ip), vehicle: saline) 97 % of control; (endpoint: mean survival time, dose: 75.0 mg/kg/injection, schedule: Q01DX009 (ip), vehicle: saline) 103 % of control; (endpoint: mean survival time, dose: 75.0 mg/kg/injection, schedule: Q04DX003 (ip), vehicle: saline) 112 % of control; (endpoint: mean survival time, dose: 150.0 mg/kg/injection, schedule: Q01DX009 (ip), vehicle: saline) 100 % of control; (endpoint: mean survival time, dose: 150.0 mg/kg/injection, schedule: Q04DX003 (ip), vehicle: saline) 100 % of control; (endpoint: mean survival time, dose: 300.0 mg/kg/injection, schedule: Q04DX003 (ip), vehicle: saline) 100 % of control.

With `CS(=O)(=O)c1nc2ccccc2s1`, the T/C by setting is: under setting [1], 103 % of control; under setting [2], 91 % of control.

Take `CN(C)C=O`: the T/C by setting is: (endpoint: mean survival time, dose: 25.0 mg/kg/injection, schedule: Q01DX009 (ip), vehicle: saline) 101 % of control; (endpoint: mean survival time, dose: 50.0 mg/kg/injection, schedule: Q01DX009 (ip), vehicle: saline) 97 % of control; (endpoint: mean survival time, dose: 100.0 mg/kg/injection, schedule: Q01DX009 (ip), vehicle: saline) 101 % of control; (endpoint: mean survival time, dose: 100.0 mg/kg/injection, schedule: Q04DX002 (ip), vehicle: saline) 111 % of control; (endpoint: mean survival time, dose: 200.0 mg/kg/injection, schedule: Q01DX009 (ip), vehicle: saline) 100 % of control; (endpoint: mean survival time, dose: 200.0 mg/kg/injection, schedule: Q04DX002 (ip), vehicle: saline) 96 % of control. The T/C reads like this: (endpoint: mean survival time, dose: 400.0 mg/kg/injection, schedule: Q01DX009 (ip), vehicle: saline) 109 % of control; (endpoint: mean survival time, dose: 400.0 mg/kg/injection, schedule: Q04DX002 (ip), vehicle: saline) 111 % of control; (endpoint: mean survival time, dose: 800.0 mg/kg/injection, schedule: Q01DX009 (ip), vehicle: saline) 106 % of control; (endpoint: mean survival time, dose: 1600.0 mg/kg/injection, schedule: Q01DX009 (ip), vehicle: saline) 105 % of control.

Take `N#CCSc1nc(N)nc2nc[nH]c12`: the T/C is, setting by setting: under setting [1], 103 % of control; under setting [3], 102 % of control; under setting [2], 116 % of control; under setting [4], 105 % of control; under setting [5], 107 % of control.

For `CCc1cc(/C=C2\C(=O)C=Cc3ccccc32)c(O)s1`, the T/C by setting is: (endpoint: mean survival time, dose: 25.0 mg/kg/injection, schedule: Q04DX002 (ip), vehicle: saline with Tween-80) 101 % of control; (endpoint: mean survival time, dose: 50.0 mg/kg/injection, schedule: Q04DX002 (ip), vehicle: saline with Tween-80) 96 % of control; (endpoint: mean survival time, dose: 100.0 mg/kg/injection, schedule: Q04DX002 (ip), vehicle: saline with Tween-80) 96 % of control.

Regarding `COc1ccc(C(=CC2=CC(=O)C3=C(CCCC3)C2=O)c2ccc(OC)cc2)cc1`, the T/C under setting [3] is 96 % of control, the T/C under setting [4] was 100 % of control and the T/C under setting [5] was 97 % of control.

In the case of `CCCC(=O)O.CCCC(=O)O.CCCC(=O)O.CCCC(=O)O.O=P1(N(CCCl)CCCl)NCCCO1.O=P1(N(CCCl)CCCl)NCCCO1.[Rh].[Rh]` (centres undefined), the T/C by setting is: (endpoint: median survival time, dose: 0.13 mg/kg/injection, schedule: Q01DX001 (ip), vehicle: olive oil, sesame oil, peanut oil) 101 % of control; (endpoint: median survival time, dose: 0.25 mg/kg/injection, schedule: Q01DX001 (ip), vehicle: olive oil, sesame oil, peanut oil) 102 % of control; (endpoint: median survival time, dose: 0.5 mg/kg/injection, schedule: Q01DX001 (ip), vehicle: olive oil, sesame oil, peanut oil) 103 % of control; (endpoint: median survival time, dose: 1.0 mg/kg/injection, schedule: Q01DX001 (ip), vehicle: olive oil, sesame oil, peanut oil) 95 % of control; (endpoint: median survival time, dose: 2.0 mg/kg/injection, schedule: Q01DX001 (ip), vehicle: olive oil, sesame oil, peanut oil) 102 % of control.

Take `CC(=O)OCC1OC(n2nc(-c3ccccc3)c(=O)n(-c3ccccc3)c2=O)C(OC(C)=O)C(OC(C)=O)C1OC(C)=O` (centres undefined): the T/C was 96 % of control (endpoint: mean survival time, dose: 3.8 mg/kg/injection, schedule: Q01DX005 (ip), vehicle: water); 96 % of control (endpoint: mean survival time, dose: 7.5 mg/kg/injection, schedule: Q01DX005 (ip), vehicle: water); 96 % of control (endpoint: mean survival time, dose: 15.0 mg/kg/injection, schedule: Q01DX005 (ip), vehicle: water); 101 % of control (endpoint: mean survival time, dose: 30.0 mg/kg/injection, schedule: Q01DX005 (ip), vehicle: water); 101 % of control (endpoint: mean survival time, dose: 60.0 mg/kg/injection, schedule: Q01DX005 (ip), vehicle: water).

With `N#CC(C#N)=Cc1cccc(CC(O)(C(F)(F)F)C(F)(F)F)n1`, the T/C runs as follows: under setting [6], 105 % of control; under setting [7], 94 % of control.

As to `CC(=O)Nc1c(Cl)c(Cl)c(Cl)c2c1-c1ccc(Cl)cc1C2`, the T/C is 95 % of control (endpoint: mean survival time, dose: 100.0 mg/kg/injection, schedule: Q01DX001 (ip), vehicle: saline with Tween-80); 98 % of control under setting [1]; 101 % of control (endpoint: mean survival time, dose: 200.0 mg/kg/injection, schedule: Q01DX001 (ip), vehicle: saline with Tween-80); 103 % of control under setting [2]; 100 % of control (endpoint: mean survival time, dose: 400.0 mg/kg/injection, schedule: Q01DX001 (ip), vehicle: saline with Tween-80); 103 % of control (endpoint: mean survival time, dose: 400.0 mg/kg/injection, schedule: Q01DX009 (ip), vehicle: saline with Tween-80).

Regarding `CC(O)(c1ccc(Cl)cc1)c1ccc(Cl)cc1`, the T/C by setting is: under setting [6], 106 % of control; under setting [7], 101 % of control; under setting [8], 90 % of control.

Take `Cn1c(=O)c2c(nc(NCCCO)n2C)n(C)c1=O`: the T/C (endpoint: mean survival time, dose: 12.5 mg/kg/injection, schedule: Q01DX005 (ip), vehicle: distilled water + Tween-80) is 100 % of control; the T/C (endpoint: mean survival time, dose: 25.0 mg/kg/injection, schedule: Q01DX005 (ip), vehicle: distilled water + Tween-80) was 94 % of control; the T/C (endpoint: mean survival time, dose: 50.0 mg/kg/injection, schedule: Q01DX005 (ip), vehicle: distilled water + Tween-80) was 94 % of control; the T/C (endpoint: mean survival time, dose: 100.0 mg/kg/injection, schedule: Q01DX005 (ip), vehicle: distilled water + Tween-80) is 94 % of control; the T/C (endpoint: mean survival time, dose: 200.0 mg/kg/injection, schedule: Q01DX005 (ip), vehicle: distilled water + Tween-80) was 98 % of control.

Regarding `Cc1nc(N)nc2ccccc12`, the T/C (endpoint: mean survival time, dose: 100.0 mg/kg/injection, schedule: Q01DX001 (ip), vehicle: saline) is 100 % of control.

On to `O=C1c2c(O)cccc2-c2nn(CCNCCO)c3ccc(NCCNCCO)c1c23`, for which the T/C reads like this: (endpoint: median survival time, dose: 1.38 mg/kg/injection, schedule: Q01DX009 (ip), vehicle: water) 170 % of control; (endpoint: median survival time, dose: 2.75 mg/kg/injection, schedule: Q01DX009 (ip), vehicle: water) 240 % of control and 370 % of control; (endpoint: median survival time, dose: 5.5 mg/kg/injection, schedule: Q01DX009 (ip), vehicle: water) 222 % of control and 361 % of control; (endpoint: median survival time, dose: 11.0 mg/kg/injection, schedule: Q01DX009 (ip), vehicle: water) 101 % of control and 107 % of control; (endpoint: median survival time, dose: 22.0 mg/kg/injection, schedule: Q01DX009 (ip), vehicle: water) 87 % of control.

Consider `O=C(Nc1ccc2c(c1)Cc1cc(Br)ccc1-2)C(F)(F)F`, for which the T/C reads like this: under setting [6], 101 % of control; under setting [7], 97 % of control; under setting [8], 101 % of control.
